# Measured values as given in patent US10457655B2, “Compounds and compositions for inhibition of FASN” (FORMA Therapeutics, Inc., priority 2013, dated 2019).
# Target: FASN enzyme (Homo sapiens, UniProt P49327)
# Experiment: Enzymatic Assay for FASN Inhibitors
# Format: biochemical
# Conditions: not given
# Protocol: Assays were performed in a 384-well black plate to measure the inhibition of FASN activities by individual compounds herein disclosed. An aliquot of 250 nL of compound was incubated with 10 μL of 40 nM FASN enzyme in assay buffer (50 mM HEPES pH=7.3, 0.5 mM EDTA, 1 mM Ascorbate, 100 mM NaCl and 0.04% TritonX-100) in each well at 25° C. for 60 minutes. After the plate was centrifuged briefly, 10 μL of substrate mix (20 μM Acetyl-CoA, 60 μM Malonyl-CoA, and 100 μM NADPH in assay buffer) was added to each well. The reaction was maintained at 25° C. for 90 minutes. The reaction was then quenched by adding 10 μL of 90 μM 7-Diethylamino-3-(4′-Maleimidylpheynyl)-4-Methylcoumarin in 50/50 Ethanol/H2O solution. The assay plate was incubated at 25° C. for 15 minutes, and read on a plate reader with excitation and emission wavelength at 360 nm and 530 nm, respectively. The IC50 of a given compound was calculated by fitting the dose response curve with a four parameter logistic equation.
# Chain of FASN enzyme (P49327 whole entry): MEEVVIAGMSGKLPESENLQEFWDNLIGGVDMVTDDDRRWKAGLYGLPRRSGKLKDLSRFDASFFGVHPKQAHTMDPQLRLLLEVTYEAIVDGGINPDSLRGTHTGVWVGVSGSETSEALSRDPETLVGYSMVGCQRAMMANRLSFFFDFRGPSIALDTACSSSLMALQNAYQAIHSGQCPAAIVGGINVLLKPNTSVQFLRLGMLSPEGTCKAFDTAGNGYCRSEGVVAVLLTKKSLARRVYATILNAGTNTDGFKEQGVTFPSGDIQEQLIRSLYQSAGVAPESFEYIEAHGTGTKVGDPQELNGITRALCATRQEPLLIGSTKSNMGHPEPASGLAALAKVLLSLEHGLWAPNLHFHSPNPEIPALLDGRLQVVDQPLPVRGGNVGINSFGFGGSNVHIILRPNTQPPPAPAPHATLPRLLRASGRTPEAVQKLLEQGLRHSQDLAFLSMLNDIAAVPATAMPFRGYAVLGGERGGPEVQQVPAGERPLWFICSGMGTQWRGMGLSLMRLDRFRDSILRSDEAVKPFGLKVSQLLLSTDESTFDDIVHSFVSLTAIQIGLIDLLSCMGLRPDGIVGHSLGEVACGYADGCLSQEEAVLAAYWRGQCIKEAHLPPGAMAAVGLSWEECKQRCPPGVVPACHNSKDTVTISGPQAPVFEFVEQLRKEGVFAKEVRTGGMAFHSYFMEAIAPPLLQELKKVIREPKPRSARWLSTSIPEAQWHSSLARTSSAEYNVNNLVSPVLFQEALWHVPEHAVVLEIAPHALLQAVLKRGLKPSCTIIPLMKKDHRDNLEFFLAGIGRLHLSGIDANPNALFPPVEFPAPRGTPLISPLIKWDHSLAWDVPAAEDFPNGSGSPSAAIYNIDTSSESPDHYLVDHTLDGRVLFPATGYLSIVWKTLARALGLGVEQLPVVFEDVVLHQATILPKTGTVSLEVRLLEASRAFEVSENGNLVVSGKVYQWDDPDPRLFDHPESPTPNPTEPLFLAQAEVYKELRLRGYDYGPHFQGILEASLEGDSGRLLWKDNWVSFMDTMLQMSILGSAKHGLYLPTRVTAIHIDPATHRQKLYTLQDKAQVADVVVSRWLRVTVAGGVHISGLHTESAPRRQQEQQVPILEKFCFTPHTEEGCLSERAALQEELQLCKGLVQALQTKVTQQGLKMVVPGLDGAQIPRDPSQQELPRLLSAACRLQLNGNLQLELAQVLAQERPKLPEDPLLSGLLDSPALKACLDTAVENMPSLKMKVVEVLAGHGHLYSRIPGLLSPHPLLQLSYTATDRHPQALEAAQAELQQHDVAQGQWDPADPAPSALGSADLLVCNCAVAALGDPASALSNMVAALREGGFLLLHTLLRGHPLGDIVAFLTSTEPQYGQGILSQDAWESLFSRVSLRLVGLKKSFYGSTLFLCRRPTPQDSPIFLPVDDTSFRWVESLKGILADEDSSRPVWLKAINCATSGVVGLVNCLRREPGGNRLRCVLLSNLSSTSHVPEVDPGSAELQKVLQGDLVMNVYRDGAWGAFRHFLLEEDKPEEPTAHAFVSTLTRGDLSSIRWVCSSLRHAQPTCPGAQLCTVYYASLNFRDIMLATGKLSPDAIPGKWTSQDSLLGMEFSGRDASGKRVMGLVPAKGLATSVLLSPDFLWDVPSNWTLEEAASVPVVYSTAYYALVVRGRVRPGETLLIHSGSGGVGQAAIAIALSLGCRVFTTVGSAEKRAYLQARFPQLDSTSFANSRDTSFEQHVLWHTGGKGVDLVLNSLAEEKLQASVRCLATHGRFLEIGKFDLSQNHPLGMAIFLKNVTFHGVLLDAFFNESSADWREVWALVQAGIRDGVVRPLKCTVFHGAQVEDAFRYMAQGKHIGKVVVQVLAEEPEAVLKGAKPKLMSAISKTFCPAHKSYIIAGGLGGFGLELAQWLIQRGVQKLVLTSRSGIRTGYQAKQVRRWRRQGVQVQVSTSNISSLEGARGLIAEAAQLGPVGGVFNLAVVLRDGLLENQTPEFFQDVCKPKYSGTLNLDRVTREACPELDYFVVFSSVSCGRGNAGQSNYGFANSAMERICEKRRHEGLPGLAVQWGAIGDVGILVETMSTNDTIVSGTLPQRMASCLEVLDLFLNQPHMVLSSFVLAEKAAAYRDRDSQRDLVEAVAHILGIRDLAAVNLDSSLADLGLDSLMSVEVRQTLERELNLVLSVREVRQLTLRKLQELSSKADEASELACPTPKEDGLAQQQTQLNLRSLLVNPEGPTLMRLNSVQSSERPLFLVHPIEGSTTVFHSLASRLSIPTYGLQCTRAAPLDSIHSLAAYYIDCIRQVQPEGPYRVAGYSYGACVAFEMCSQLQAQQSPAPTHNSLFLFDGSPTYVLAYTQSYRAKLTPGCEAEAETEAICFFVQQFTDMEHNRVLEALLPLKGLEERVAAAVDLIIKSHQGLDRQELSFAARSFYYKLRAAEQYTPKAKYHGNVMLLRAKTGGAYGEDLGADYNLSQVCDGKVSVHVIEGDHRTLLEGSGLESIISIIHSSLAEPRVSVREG
row,SMILES,IC50 [nM]
1,Cn1cnc2cc(-c3ccc(C(=O)N4CCN(C(=O)C5(O)CC5)CC4(C)C)cc3)ccc21,< 500
2,Cn1cc2ccc(-c3ccc(C(=O)N4CCN(C(=O)C5(O)CC5)CC4)c(F)c3)cc2n1,< 500
3,Cc1nn(-c2ccc(C(=O)N3CCN(C(=O)C4(O)CC4)CC3)c(F)c2)c2ccccc12,< 500
4,O=C(c1ccc(-c2cccc(S(=O)(=O)C3CC3)c2)c(Cl)c1)N1CCN(C(=O)C2(O)CC2)CC1,< 500
5,O=C(c1ccc(N2CCCc3ccccc32)cc1)N1CCN(C(=O)C2(O)CC2)CC1,< 500
6,CC1(C)CN(C(=O)C2(O)CC2)CCN1C(=O)c1ccc(-c2nc3ccc(F)cc3o2)cc1,< 500
7,O=C(c1ccc(N2CCc3ccc(F)cc3C2)cc1)N1CCN(C(=O)C2(O)CC2)CC1,< 500
8,C[C@H]1CN(C(=O)c2ccc(-c3ccc(Cl)cc3F)cc2)CCN1C(=O)C1(O)CC1,< 500
9,C[C@H]1CN(C(=O)c2ccc(-c3nc4ccc(F)cc4o3)cc2)CCN1C(=O)C1(O)CC1,< 500
10,C[C@@H]1CN(C(=O)c2ccc(-c3nc4ccc(F)cc4o3)cc2)C[C@H](C)N1C(=O)C1(O)CC1,< 500
11,C[C@@H]1CN(C(=O)C2(O)CC2)CCN1C(=O)c1ccc(-c2ccc(Cl)cc2F)cc1,< 500
12,C[C@@H]1CN(C(=O)C2(O)CC2)C[C@H](C)N1C(=O)c1ccc(-c2ccc3c(c2)ncn3C)cc1,< 500
13,C[C@H]1CN(C(=O)C2(O)CC2)CCN1C(=O)c1ccc(-c2ccc3c(c2)ncn3C)cc1,< 500
14,Cn1ccc2cc(-c3ccc(C(=O)N4CCN(C(=O)C5(O)CC5)CC4)cn3)ccc21,< 500
15,O=C(c1ccc(-c2cccc(NS(=O)(=O)C3CCCC3)c2)cc1)N1CCN(C(=O)C2(O)CC2)CC1,< 500
16,O=C(Nc1cccc(-c2ccc(C(=O)N3CCN(C(=O)C4(O)CC4)CC3)cc2)c1)C1CC1,< 500
17,N#CC1(c2cccc(-c3ccc(C(=O)N4CCN(C(=O)C5(O)CC5)CC4)c(F)c3)c2)CC1 [1-(3-{3-fluoro-4-[4-(1-hydroxycyclopropanecarbonyl)piperazine-1-carbonyl]phenyl}phenyl)cyclopropane-1-carbonitrile],< 500
18,N#CC1(c2cccc(-c3ccc(C(=O)N4CCN(C(=O)C5(O)CC5)CC4)cc3)c2)CCC1 [1-(3-{4-[4-(1-hydroxycyclopropanecarbonyl)piperazine-1-carbonyl]phenyl}phenyl)cyclobutane-1-carbonitrile],< 500
19,"Nc1cc(-c2cccc(-c3ccc(C(=O)N4CCN(C(=O)C5(O)CC5)CC4)c(F)c3)c2)no1 [1-(4-{4-[3-(5-amino-1,2-oxazol-3-yl)phenyl]-2-fluorobenzoyl}piperazine-1-carbonyl)cyclopropan-1-ol]",< 500
20,O=C(c1ccc(-c2cccc(S(=O)(=O)C3CC3)c2)cc1F)N1CCN(C(=O)C2(O)CC2)CC1 [1-(4-{4-[3-(cyclopropanesulfonyl)phenyl]-2-fluorobenzoyl}piperazine-1-carbonyl)cyclopropan-1-ol],< 500

# The next lines start with the values.
row,IC50 [nM],SMILES
1,< 500,N#CC1(c2cccc(-c3ccc(C(=O)N4CCN(C(=O)C5(O)CC5)CC4)cc3)c2)CC1
2,< 500,Cc1n[nH]c2cc(-c3ccc(C(=O)N4CCN(C(=O)C5(O)CC5)CC4)c(F)c3)ccc12
3,< 500,NC1(C(=O)N2CCN(C(=O)c3ccc(-c4n[nH]c5c(F)cccc45)cc3F)CC2)CC1
4,< 500,Cn1cnc2cc(-c3ccc(C(=O)N4CCN(C(=O)C5(N)CCC5)CC4)cc3)ccc21
5,< 500,Cn1ncc2ccc(-c3ccc(C(=O)N4CCN(C(=O)C5(N)CC5)CC4)cc3)cc21
6,< 500,Cn1nc2ccc(-c3ccc(C(=O)N4CCN(C(=O)C5(O)CC5)CC4)cc3)cc2n1
7,< 500,Cc1n[nH]c2c(-c3ccc(C(=O)N4CCN(C(=O)C5(N)CC5)CC4)cc3)cccc12
8,< 500,O=C(c1ccc(-c2ccc(-c3cn[nH]c3)cc2)cc1)N1CCN(C(=O)C2(O)CC2)CC1
9,< 500,Cc1nc2cc(Cl)cc(-c3ccc(C(=O)N4CCN(C(=O)C5(O)CC5)CC4)cc3)c2[nH]1
10,< 500,O=C(c1ccc(-c2cc3[nH]nnc3cc2F)cc1)N1CCN(C(=O)C2(O)CC2)CC1
11,< 500,O=C(c1ccc(-c2ccc(Cl)cc2)cc1)N1CCN(C(=O)C2(O)CC2)CC1
12,< 500,COc1ccc(OC(F)(F)F)cc1-c1ccc(C(=O)N2CCN(C(=O)C3(O)CC3)CC2)cc1
13,< 500,O=C(c1ccc(-c2cccc3nsnc23)cc1)N1CCN(C(=O)C2(O)CC2)CC1
14,< 500,O=C(c1ccc(-c2cccc(OCC3CC3)c2)cc1)N1CCN(C(=O)C2(O)CC2)CC1
15,< 500,O=C(c1ccc(-c2nc3ccccn3c2Cl)cc1)N1CCN(C(=O)C2(O)CC2)CC1
16,< 500,O=C(c1ccc(-c2cccc(OC3CC3)c2)cc1)N1CCN(C(=O)C2(O)CC2)CC1
17,< 500,O=C(c1ccc(-c2cc(F)c3[nH]ccc3c2)cc1)N1CCN(C(=O)C2(O)CC2)CC1

row,IC50 [nM],SMILES
1,< 500,Cc1nn(C)c2ccc(-c3ccc(C(=O)N4CCN(C(=O)C5CCO5)CC4)cc3)cc12 (stereo not shown)
2,< 500,CC1(c2cccc(-c3ccc(C(=O)N4CCN(C(=O)C5(O)CC5)CC4)cc3)c2)NC(=O)NC1=O (stereo not shown)
3,< 500,O=C(c1ccc(-c2ccc3[nH]c(=O)ccc3c2)cc1)N1CCN(C(=O)C2(O)CC2)CC1
4,< 500,N#CC1(c2cccc(-c3ccc(C(=O)N4CCN(C(=O)C5(N)CC5)CC4)cc3)c2)CC1 [1-(3-{4-[4-(1-aminocyclopropanecarbonyl)piperazine-1-carbonyl]phenyl}phenyl)cyclopropane-1-carbonitrile]
5,< 500,O=C(c1ccc(-c2cccc(N3CCNC3=O)c2)cc1)N1CCN(C(=O)C2(O)CC2)CC1 [1-(3-{4-[4-(1-hydroxycyclopropanecarbonyl)piperazine-1-carbonyl]phenyl}phenyl)imidazolidin-2-one]
6,< 500,O=C(c1ccc(-c2cccc(N3CCCC3=O)c2)cc1)N1CCN(C(=O)C2(O)CC2)CC1 [1-(3-{4-[4-(1-hydroxycyclopropanecarbonyl)piperazine-1-carbonyl]phenyl}phenyl)pyrrolidin-2-one]
7,< 500,"O=C(c1ccc(-c2ccc3c(c2)ncn3CCO)cc1)N1CCN(C(=O)C2(O)CC2)CC1 [1-(4-{4-[1-(2-hydroxyethyl)-1H-1,3-benzodiazol-5-yl]benzoyl}piperazine-1-carbonyl)cyclopropan-1-ol]"
8,< 500,"O=C(c1ccc(-c2ccc3ncn(CCO)c3c2)cc1)N1CCN(C(=O)C2(O)CC2)CC1 [1-(4-{4-[1-(2-hydroxyethyl)-1H-1,3-benzodiazol-6-yl]benzoyl}piperazine-1-carbonyl)cyclopropan-1-ol]"
9,< 500,"O=C(c1ccc(-c2ccc3[nH]c(CO)nc3c2)cc1)N1CCN(C(=O)C2(O)CC2)CC1 [1-(4-{4-[2-(hydroxymethyl)-1H-1,3-benzodiazol-5-yl]benzoyl}piperazine-1-carbonyl)cyclopropan-1-ol]"
10,< 500,"Nc1nc(-c2cccc(-c3ccc(C(=O)N4CCN(C(=O)C5(O)CC5)CC4)cc3)c2)cs1 [1-(4-{4-[3-(2-amino-1,3-thiazol-4-yl)phenyl]benzoyl}piperazine-1-carbonyl)cyclopropan-1-ol]"
11,< 500,"Nc1cc(-c2cccc(-c3ccc(C(=O)N4CCN(C(=O)C5(O)CC5)CC4)cc3)c2)no1 [1-(4-{4-[3-(5-amino-1,2-oxazol-3-yl)phenyl]benzoyl}piperazine-1-carbonyl)cyclopropan-1-ol]"
12,< 500,"Nc1nc(-c2cccc(-c3ccc(C(=O)N4CCN(C(=O)C5(O)CC5)CC4)cc3)c2)n[nH]1 [1-(4-{4-[3-(5-amino-1H-1,2,4-triazol-3-yl)phenyl]benzoyl}piperazine-1-carbonyl)cyclopropan-1-ol]"
13,< 500,Nc1cc(-c2cccc(-c3ccc(C(=O)N4CCN(C(=O)C5(O)CC5)CC4)cc3)c2)n[nH]1 [1-(4-{4-[3-(5-amino-1H-pyrazol-3-yl)phenyl]benzoyl}piperazine-1-carbonyl)cyclopropan-1-ol]
14,< 500,"Cc1nc(-c2cccc(-c3ccc(C(=O)N4CCN(C(=O)C5(O)CC5)CC4)cc3)c2)no1 [1-(4-{4-[3-(5-methyl-1,2,4-oxadiazol-3-yl)phenyl]benzoyl}piperazine-1-carbonyl)cyclopropan-1-ol]"
15,< 500,"Cc1nnc(-c2cccc(-c3ccc(C(=O)N4CCN(C(=O)C5(O)CC5)CC4)cc3)c2)s1 [1-(4-{4-[3-(5-methyl-1,3,4-thiadiazol-2-yl)phenyl]benzoyl}piperazine-1-carbonyl)cyclopropan-1-ol]"
16,< 500,Cn1cc(-c2ccc(-c3ccc(C(=O)N4CCN(C(=O)C5(O)CC5)CC4)cc3)cc2)cn1 [1-(4-{4-[4-(1-methyl-1H-pyrazol-4-yl)phenyl]benzoyl}piperazine-1-carbonyl)cyclopropan-1-ol]

# Same assay, conditions: FASN enzymatic assay; Table 2-2
row,IC50 [nM],SMILES
1,500 to 5000,O=C(c1ccc(-c2ccc3nncn3n2)cc1)N1CCN(C(=O)C2(O)CC2)CC1

# Same assay, conditions: FASN enzymatic assay; Table 2-3
row,IC50 [nM],SMILES
1,≥ 5000,O=C(c1ccc(-c2ccc(Cl)cc2F)cc1)N1CCN(C(=O)C2(O)CC2)[C@H](CO)C1
2,≥ 5000,C[C@@H]1CN(C(=O)C2(O)CC2)[C@@H](C)CN1C(=O)c1ccc(-c2ccc3cnccc3c2)cc1
3,≥ 5000,O=C(c1cccc(Oc2ccccc2)c1)N1CCN(C(=O)C2(O)CC2)CC1 [1-({4-[(3-phenoxyphenyl)carbonyl]piperazin-1-yl}carbonyl)cyclopropan-1-ol]
4,≥ 5000,O=C(c1ccc(Oc2ccccc2)cc1)N1CCN(C(=O)C2(O)CC2)CC1 [1-({4-[(4-phenoxyphenyl)carbonyl]piperazin-1-yl}carbonyl)cyclopropan-1-ol]
